Tested on: AGS cells (KRAS^G12D)
Experiment: Detection of cell proliferation in vitro by MTT/MTS method (cell activity experiment)
Format: cell-based
Details: Homo sapiens, AGS, 72 h, AGS cells; MTT/MTS; 3 days of drug treatment; read-out: AGS IC50
Outline: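 KRAS G12D AGS cells seeded at 1000 per well, compound added 24 h later, 0.5% final DMSO. Viability read after 3 days of treatment by MTT (solubilised in DMSO) or MTS, 4 h, absorbance 490 nm. IC50 from dose–response curves versus DMSO control.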

Row | SMILES | IC50 [nM]
1 | COC1CCCc2cc(O)cc(-c3ncc4c(N5C[C@H]6CC[C@@H](C5)N6)nc(OC[C@@]56CCCN5C[C@H](F)C6)nc4c3F)c21 (stereo partly drawn) [Example 270, 4-(4-((1R,5S)-3,8-diazabicyclo[3.2.1]octan-3-yl)-8-fluoro-2-(((2R,7aS)-2-fluorotetrahydro-1H-pyrrolizin-7a(5H)-yl)methoxy)pyrido[4,3-d]pyrimidin-7-yl)-5-methoxy-5,6,7,8-tetrahydronaphthalen-2-ol] | 20
2 | C#Cc1cccc2cc(O)cc(-c3ccc4c(N5CCC6(CC5)CO[C@@H](C)[C@H]6N)nc(OC[C@@]56CCCN5C[C@H](F)C6)nc4c3F)c12 [Example 115, 4-(4-((3S,4S)-4-amino-3-methyl-2-oxa-8-azaspiro[4.5]decan-8-yl)-8-fluoro-2-(((2R, 7aS)-2-fluorotetrahydro-1H-pyrrolizin-7a(5H)-yl)methoxy)quinazolin-7-yl)-5-ethynylnaphthalen-2-ol] | > 2500
3 | C#Cc1c(F)ccc2cc(O)cc(-c3ncc4c(N5CC6CCCC(C5)N6)nc(OC[C@@]56CCCN5C[C@H](F)C6)nc4c3F)c12 [Example 43, 4-(4-(3,9-diazabicyclo [3.3.1]nonan-3-yl)-8-fluoro-2-(((2R,7aS)-2-fluorotetrahydro-1H-pyrrolizin-7a(5H)-yl)methoxy)pyrido[4,3-d]pyrimidin-7-yl)-5-ethynyl-6-fluoronaphthalen-2-ol] | 31
4 | CCc1c(F)ccc2cc(O)cc(C3=C(F)c4nc(OC[C@@]56CCCN5C[C@H](F)C6)nc(N5C[C@H]6CC[C@@H](C5)N6)c4C4=NCCN43)c12 [Example 403, 4-(10-((1R,5S)-3,8-diazabicyclo[3.2.1]octan-3-yl)-6-fluoro-8-(((2R,7aS)-2-fluorotetrahydro-1H-pyrrolizin-7a(5H)-yl)methoxy)-2,3-dihydroimidazo[1′,2′:1,2]pyrido[4,3-d]pyrimidin-5-yl)-5-ethyl-6-fluoronaphthalen-2-ol] | 60
5 | C#Cc1c(F)ccc2cc(O)cc(-c3ccc4c(N5C[C@H]6CC[C@@H](C5)N6)nc(OC[C@]56CCCN5[C@@H](COC(=O)N(C)C)CC6)nc4n3)c12 [Example 145, ((3R,7aR)-7a-(((4-((1R, 5S)-3,8-diazabicyclo [3.2.1]octan-3-yl)-7-(8-ethynyl-7-fluoro-3-hydroxynaphthalen-1-yl)pyrido[2,3-d]pyrimidin-2-yl)oxy)methyl)hexahydro-1H-pyrrolizin-3-yl)methyl dimethylcarbamate] | > 2500
6 | C#Cc1c(F)ccc2cc(O)cc(-c3c4c(c5c(N6C[C@H]7CC[C@@H](C6)N7)nc(OC[C@@]67CCCN6C[C@H](F)C7)nc5c3F)CCC4)c12 [Example 379, 4-(1-((1R,5S)-3,8-diazabicyclo[3.2.1]octan-3-yl)-5-fluoro-3-(((2R,7aS)-2-fluorotetrahydro-1H-pyrrolizin-7a(5H)-yl)methoxy)-8,9-dihydro-7H-cyclopenta[f]quinazolin-6-yl)-5-ethynyl-6-fluoronaphthalen-2-ol] | 90
7 | C#Cc1c(F)ccc2cc(O)cc(-c3ccc4c(N5CC6CCC(C5)[S+]6[O-])nc(OC[C@@]56CCCN5C[C@H](F)C6)nc4c3F)c12 (stereo partly drawn) [Example 159, (1R,5S,8R)-3-(7-(8-ethynyl-7-fluoro-3-hydroxynaphthalen-1-yl)-8-fluoro-2-(((2R,7aS)-2-fluorotetrahydro-1H-pyrrolizin-7a(5H)-yl)methoxy)quinazolin-4-yl)-8-thia-3-azabicyclo[3.2.1]octane 8-oxide] | > 2500
8 | C#Cc1c(F)ccc2cc(O)cc(-c3c(Cl)cc4c(N5C[C@H]6CC[C@@H](C5)N6)nc(OC[C@@]56CCCN5C[C@H](F)C6)nc4c3OC3CC3)c12 [Example 330, 4-(4-((1R,5S)-3,8-diazabicyclo[3.2.1]octan-3-yl)-6-chloro-8-cyclopropoxy-2-(((2R,7aS)-2-fluorotetrahydro-1H-pyrrolizin-7a(5H)-yl)methoxy)quinazolin-7-yl)-5-ethynyl-6-fluoronaphthalen-2-ol] | 195
